Measurements as given in PubChem BioAssay (NCI).
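Compound exposure: 48 hours, 5 concentrations, 96-well plates. GI50 is the concentration that inhibits growth by half. TGI is the concentration that stops growth completely.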

Experiments:
Experiment in all cases: inhibition of tumour cell growth, NCI panel, 48 h
T-47D breast = system: T-47D breast
MDA-MB-435 = system: MDA-MB-435
MOLT-4 leukemia = system: MOLT-4 leukemia
K-562 leukemia = system: K-562 leukemia
SNB-75 CNS = system: SNB-75 CNS
SK-MEL-2 melanoma = system: SK-MEL-2 melanoma
HCT-15 colon = system: HCT-15 colon
SF-268 CNS = system: SF-268 CNS
MALME-3M melanoma = system: MALME-3M melanoma
TK-10 renal = system: TK-10 renal

Compound | TGI (T-47D breast) [µM] | TGI (MDA-MB-435) [µM] | TGI (MOLT-4 leukemia) [µM] | TGI (K-562 leukemia) [µM] | TGI (SNB-75 CNS) [µM] | TGI (SK-MEL-2 melanoma) [µM] | TGI (HCT-15 colon) [µM] | TGI (SF-268 CNS) [µM] | TGI (MALME-3M melanoma) [µM] | TGI (TK-10 renal) [µM] | GI50 (MDA-MB-435) [µM] | GI50 (MOLT-4 leukemia) [µM] | GI50 (K-562 leukemia) [µM] | GI50 (SNB-75 CNS) [µM] | GI50 (HCT-15 colon) [µM] | GI50 (SF-268 CNS) [µM] | GI50 (MALME-3M melanoma) [µM] | GI50 (T-47D breast) [µM] | GI50 (SK-MEL-2 melanoma) [µM] | GI50 (TK-10 renal) [µM]
CCOC(=O)n1cncc1CC(NC(=O)Cc1c(C(=O)C=C(C)C)[nH]c2ccccc12)C(=O)OC (stereo unspecified) | 7.46 | 37.1 | 47.3 | > 100 | 49.7 | 34.2 | 59.6 | 37.4 | 32.8 | 34.2 |  |  |  |  |  |  |  |  |  | 
COc1cccc(-c2nc3c(C(=O)NCCN(C)C)cccc3[nH]2)c1 |  |  | 24.4 | > 70.9 | 68.1 | 34.4 | 41.6 | > 41.7 | 27.6 |  |  |  |  |  |  |  |  |  |  | 
O=S(=O)(O)c1c(N=Nc2c(O)ccc3ccccc23)ccc2ccccc12 | > 100 | > 100 | > 100 | > 100 | > 100 | > 100 | > 100 | > 100 | > 100 | > 100 |  |  |  |  |  |  |  |  |  | 
Nc1nc(SCc2ccccc2)c2ncn(Cc3ccccc3)c2n1 | > 100 | > 100 | > 100 | > 100 | > 100 | > 100 | > 100 | > 100 | > 89.1 | > 100 |  |  |  |  |  |  |  |  |  | 
C=C1C(=O)OC2C1C(OC(=O)/C(C)=C/C)CC1(C)C(=O)CCC(=C)C21 (stereo unspecified) | 43.3 | > 58.8 | > 26.5 |  | 32 | 24.2 | 10.3 | 33.4 | 23.3 | 25.7 |  |  |  |  |  |  |  |  |  | 
CC1(C)COC(/C=C/C2=NC(C)(C)CO2)=N1 | 34 | 82.9 | 36.1 | 63.4 | > 100 | 82.9 | 34.5 | 75.8 | 41.9 | 27.2 |  |  |  |  |  |  |  |  |  | 
CN(C)Cc1ccc(C(=O)Nc2ccc3ncnc(Nc4ccc(Oc5cccc(F)c5)c(Cl)c4)c3c2)cc1 |  | 3.25 | 3.21 | 2.88 | 2.84 |  | 2.62 | 3.28 | 3.01 |  | 1.74 | 1.55 | 1.17 | 1.48 | 1.25 | 1.53 | 1.53 |  |  | 
COC(=O)C1=CC[C@@H]2C(C(=O)O)=CO[C@@H](OC3OC(CO)C(O)C(O)C3O)[C@H]12 (stereo partly specified) |  |  | > 300 | > 300 | > 300 | > 300 | > 300 | > 300 | > 300 |  |  |  |  |  |  |  |  |  |  | 
c1ccc2sc(C3(N4CCCCC4)CCCC3)cc2c1 |  | 29.4 | 19.8 | 23.9 | 30.6 |  | 21.6 | 24.3 | 29.1 | 28.5 |  |  |  |  |  |  |  |  |  | 
COc1cc(-c2coc3c(OC)c(OC4OC(CO)C(O)C(O)C4O)c(OC)cc3c2=O)cc(OC)c1C (stereo unspecified) | 45.1 | 17.9 | > 36 | > 70.4 | 21.6 | 41.1 | 19.6 | 21.5 | 29.7 | > 70.3 |  |  |  |  |  |  |  |  |  | 
CC(=O)OCC1OC(O[C@@H]2c3c(O)c4c(c(O)c3C3=C(NN(c5ccc([N+](=O)[O-])cc5[N+](=O)[O-])[Se]3=O)[C@@]2(C)O)C(=O)c2ccccc2C4=O)C(OC(C)=O)C(OC(C)=O)C1OC(C)=O (stereo partly specified) | 1.46 | 0.332 | 0.23 | 0.431 | 6.24 | 0.615 | 0.873 | 0.555 | 0.355 | 2.05 |  |  |  |  |  |  |  |  |  | 
S=C(Nc1ccc(Cl)cc1)Nc1ccc(Cl)cc1 (tested in a mixture with another compound) | 23.9 | 7.86 |  | > 100 | 4.87 | 5.04 | 11.4 | 15.8 | > 100 | 5.9 | 2.45 |  | 2.28 | 1.65 | 2.59 | 3.2 | 2.55 | 3.75 | 2.34 | 2.24
[C-]#[O+].[C-]#[O+].[Ir].[O-]c1cccc2cccnc12 |  |  |  |  | > 100 | > 100 | > 100 |  | > 100 | > 100 |  |  |  | > 100 | > 100 |  | > 100 |  | > 100 | > 100
COc1ccc(SC(C)(SC)c2ccccn2)c(OC)n1 (stereo unspecified) |  | > 100 | > 100 | > 100 |  | > 100 | > 100 | > 100 | > 100 | > 100 |  |  |  |  |  |  |  |  |  | 
N#C/C=C1\C=CC(O)C(O)C1OC1OC(CO)C(O)C(O)C1O (stereo unspecified) | > 100 | > 100 | > 100 | > 100 | > 100 | > 100 | > 100 | > 100 | > 100 | > 100 |  |  |  |  |  |  |  |  |  | 
S=C1N(c2ccc(Cl)cc2)C2=C(N=Nc3ccccc3)C(=Nc3ccccc3S2)N1c1ccccn1 | 0.899 | 26.7 | 31.7 |  | 49.2 |  | 23 | 19.6 | 19.8 | 28 |  |  |  |  |  |  |  |  |  | 
O=C1c2ccccc2-c2ccc(N=[N+]([O-])c3ccc4c(c3)C(=O)c3ccccc3-4)cc21 | > 100 | > 100 | > 100 | > 100 | > 100 | > 100 | > 100 | > 100 | > 100 | > 100 |  |  |  |  |  |  |  |  |  | 
O=S(=O)(c1ccc(I)cc1)N(c1ccccc1)S(=O)(=O)C(F)(F)C(F)(F)C(F)(F)C(F)(F)F | > 100 | > 100 | > 100 | > 100 |  | 90.6 | > 100 |  | > 100 | 73.5 |  |  |  |  |  |  |  |  |  | 
CC(C)C(N=Cc1ccccc1O)C(=O)O (stereo unspecified) | > 100 | > 100 | > 100 | > 100 |  | > 100 | > 100 | > 100 | > 100 | > 100 |  |  |  |  |  |  |  |  |  | 
CC(O)C(O)C(N)CC=O (stereo unspecified) |  |  | > 500 | > 500 | > 500 | > 500 | > 500 | > 500 | > 500 |  |  |  |  |  |  |  |  |  |  | 
O=C(O)C1CC(c2ccccc2)=NN1c1ccccc1 (stereo unspecified) | > 100 | > 100 | > 100 | > 100 | > 100 | > 100 | > 100 | > 100 | 96.4 | > 100 |  |  |  |  |  |  |  |  |  | 
O=C1/C(=C\c2ccc(-c3ccc(Cl)cc3Cl)o2)SC2N=C(COc3ccc(Cl)cc3)NN12 (stereo unspecified) | > 100 | > 100 | > 100 | > 100 | > 100 | > 100 | > 100 | > 100 | > 100 | 18.3 |  |  |  |  |  |  |  |  |  | 
Fc1ccc(-c2ccc(-c3nnc(-c4cc(F)c(Cl)cc4Cl)o3)o2)cc1Cl | 45.1 | > 100 | 85.2 | > 100 | > 100 | > 100 | > 100 | > 100 | 59 | > 100 | 34.6 | 24.2 | 48.5 | 30.6 | 27.6 | 33 | 18.8 | 13.7 | 54.8 | 27.2
O=S(O)c1cc(Cl)cc(Cl)c1O |  |  | > 100 | > 100 | > 100 | > 100 |  | > 100 | > 100 | > 100 |  |  |  |  |  |  |  |  |  | 
O=C(/C=C/c1ccc(O)cc1)NCCc1ccc(O)cc1 | > 12.5 | > 12.5 |  | > 12.5 |  | > 12.5 | > 12.5 | > 12.5 | > 12.5 | > 12.5 |  |  |  |  |  |  |  |  |  | 
C[N+]1(C)CCC(C#N)(c2ccccc2)CC1 | > 100 |  | > 100 | > 100 | > 100 |  | > 100 | > 100 | > 100 | > 100 |  |  |  |  |  |  |  |  |  | 
